From patent publication US20250093315A1, “MOLECULAR SENSORS, METHOD AND KIT FOR THE DETECTION AND QUANTIFICATION OF CARBON DIOXIDE” (ETH Zurich, priority 2022, published 2025)

Experiments:
HeLa cells = assay: Cell imaging of CO2; type: cell-based; conditions: 5 μM for 10 minutes; ambient air or 5% CO2; imaged at different time points
Procedure: The selectivity of the compound (I4) was evaluated against common analytes in cells. HeLa cells were treated with compound (I4) [5 μM] for 10 minutes, followed by washing thrice to remove excess sensor. Then, as an exogenous CO2 model, the cells were incubated under ambient air or at 5% CO2 and imaged at different time points. […] In addition, time-dependent response of cells that were incubated under ambient conditions was attributed to basal levels of CO2 production by metabolic processes.

[1] = Reaction kinetics by fluorescence at varying concentrations of sensor or CO2; conditions: dependence for both (I1) and carbon dioxide
Text: The reaction kinetics were investigated with the same compounds of Formulae (I1) and (I1b) by measuring fluorescence at different time points using varying concentrations of either (I1) or carbon dioxide.

## CN(C)c1ccc2c(NCc3ccccc3N=P(c3ccccc3)(c3ccccc3)c3ccccc3)c3ccc(=[N+](C)C)cc-3oc2c1 [(I4)]
HeLa cells
  fluorescent signal in cells: significant time-dependent fluorescent increase in the red channel and decrease in the green channel

## CCN(CC)c1ccc2c(NCc3ccccc3N=P(c3ccccc3)(c3ccccc3)c3ccccc3)cc(=O)oc2c1 [Compound (I1)]
[1]
  reaction order: first-order dependence
